Results taken from the NIST ThermoML archive (doi:10.1016/j.jct.2012.03.003).
± gives the expanded uncertainty stated by the source.

Test: xn = mol fraction of the nth substance listed
Settings: Liquid, Vibrating tube method

Work on COc1cc2c(cc1O)CC1c3c(cc(O)c(OC)c3-2)CCN1C (stereo not given) [boldine] + CCO yielded a mass density (313.1 K, 16000 kPa, x1 = 0.0074) of 801.81 ± 0.88 kg/m3, a mass density (313.1 K, 17000 kPa, x1 = 0.0074) of 802.63 ± 0.89 kg/m3 and a mass density (313.1 K, 18000 kPa, x1 = 0.0074) of 803.44 ± 0.89 kg/m3. For the same molecule, the mass density (313.1 K, 19000 kPa, x1 = 0.0074) was 804.23 ± 0.89 kg/m3, the mass density (313.1 K, 20000 kPa, x1 = 0.0074) was 805 ± 0.89 kg/m3 and the mass density (313.13 K, 1000 kPa, x1 = 0.0136) was 801.85 ± 0.96 kg/m3. It also gave a mass density (313.13 K, 2000 kPa, x1 = 0.0136) of 802.69 ± 0.96 kg/m3, a mass density (313.13 K, 3000 kPa, x1 = 0.0136) of 803.55 ± 0.96 kg/m3 and a mass density (313.13 K, 4000 kPa, x1 = 0.0136) of 804.42 ± 0.96 kg/m3. For the same molecule, the mass density (313.13 K, 5000 kPa, x1 = 0.0136) was 805.28 ± 0.96 kg/m3, the mass density (313.13 K, 6000 kPa, x1 = 0.0136) was 806.15 ± 0.96 kg/m3 and the mass density (313.13 K, 7000 kPa, x1 = 0.0136) was 807.04 ± 0.96 kg/m3. It also gave a mass density (313.13 K, 8000 kPa, x1 = 0.0136) of 807.92 ± 0.96 kg/m3, a mass density (313.13 K, 9000 kPa, x1 = 0.0136) of 808.79 ± 0.96 kg/m3 and a mass density (313.13 K, 10000 kPa, x1 = 0.0136) of 809.66 ± 0.96 kg/m3. For the same molecule, the mass density (313.13 K, 11000 kPa, x1 = 0.0136) was 810.53 ± 0.96 kg/m3, the mass density (313.13 K, 12000 kPa, x1 = 0.0136) was 811.4 ± 0.97 kg/m3 and the mass density (313.13 K, 13000 kPa, x1 = 0.0136) was 812.25 ± 0.97 kg/m3. For the same molecule, the mass density (313.13 K, 14000 kPa, x1 = 0.0136) was 813.1 ± 0.97 kg/m3, the mass density (313.13 K, 15000 kPa, x1 = 0.0136) was 813.94 ± 0.97 kg/m3 and the mass density (313.13 K, 16000 kPa, x1 = 0.0136) was 814.77 ± 0.97 kg/m3. It also gave a mass density (313.13 K, 17000 kPa, x1 = 0.0136) of 815.58 ± 0.97 kg/m3, a mass density (313.13 K, 18000 kPa, x1 = 0.0136) of 816.37 ± 0.97 kg/m3 and a mass density (313.13 K, 19000 kPa, x1 = 0.0136) of 817.16 ± 0.98 kg/m3. The mass density (313.13 K, 20000 kPa, x1 = 0.0136) was 817.92 ± 0.98 kg/m3, the mass density (323.03 K, 1000 kPa, x1 = 0.0012) was 766.88 ± 0.87 kg/m3 and the mass density (323.03 K, 2000 kPa, x1 = 0.0012) was 767.82 ± 0.86 kg/m3. For the same molecule, the mass density (323.03 K, 3000 kPa, x1 = 0.0012) was 768.76 ± 0.87 kg/m3, the mass density (323.03 K, 4000 kPa, x1 = 0.0012) was 769.71 ± 0.87 kg/m3 and the mass density (323.03 K, 5000 kPa, x1 = 0.0012) was 770.66 ± 0.87 kg/m3. The mass density (323.03 K, 6000 kPa, x1 = 0.0012) was 771.62 ± 0.87 kg/m3, the mass density (323.03 K, 7000 kPa, x1 = 0.0012) was 772.58 ± 0.87 kg/m3 and the mass density (323.03 K, 8000 kPa, x1 = 0.0012) was 773.53 ± 0.87 kg/m3. For the same molecule, the mass density (323.03 K, 9000 kPa, x1 = 0.0012) was 774.49 ± 0.87 kg/m3, the mass density (323.03 K, 10000 kPa, x1 = 0.0012) was 775.44 ± 0.88 kg/m3 and the mass density (323.03 K, 11000 kPa, x1 = 0.0012) was 776.38 ± 0.88 kg/m3. The mass density (323.03 K, 12000 kPa, x1 = 0.0012) was 777.32 ± 0.88 kg/m3, the mass density (323.03 K, 13000 kPa, x1 = 0.0012) was 778.24 ± 0.88 kg/m3 and the mass density (323.03 K, 14000 kPa, x1 = 0.0012) was 779.15 ± 0.89 kg/m3. The mass density (323.03 K, 15000 kPa, x1 = 0.0012) was 780.06 ± 0.89 kg/m3, the mass density (323.03 K, 16000 kPa, x1 = 0.0012) was 780.94 ± 0.89 kg/m3 and the mass density (323.03 K, 17000 kPa, x1 = 0.0012) was 781.82 ± 0.89 kg/m3. For the same molecule, the mass density (323.03 K, 18000 kPa, x1 = 0.0012) was 782.68 ± 0.9 kg/m3, the mass density (323.03 K, 19000 kPa, x1 = 0.0012) was 783.53 ± 0.9 kg/m3 and the mass density (323.03 K, 20000 kPa, x1 = 0.0012) was 784.35 ± 0.9 kg/m3. For the same molecule, the mass density (323.04 K, 1000 kPa, x1 = 0.0074) was 779.9 ± 0.87 kg/m3, the mass density (323.04 K, 1000 kPa, x1 = 0.0196) was 808.75 ± 0.85 kg/m3 and the mass density (323.04 K, 2000 kPa, x1 = 0.0074) was 780.82 ± 0.88 kg/m3. It also gave a mass density (323.04 K, 2000 kPa, x1 = 0.0196) of 809.64 ± 0.84 kg/m3, a mass density (323.04 K, 3000 kPa, x1 = 0.0074) of 781.75 ± 0.88 kg/m3 and a mass density (323.04 K, 3000 kPa, x1 = 0.0196) of 810.53 ± 0.84 kg/m3. It also gave a mass density (323.04 K, 4000 kPa, x1 = 0.0074) of 782.68 ± 0.88 kg/m3, a mass density (323.04 K, 4000 kPa, x1 = 0.0196) of 811.42 ± 0.84 kg/m3 and a mass density (323.04 K, 5000 kPa, x1 = 0.0074) of 783.61 ± 0.88 kg/m3. It also gave a mass density (323.04 K, 5000 kPa, x1 = 0.0196) of 812.32 ± 0.85 kg/m3, a mass density (323.04 K, 6000 kPa, x1 = 0.0074) of 784.55 ± 0.88 kg/m3 and a mass density (323.04 K, 6000 kPa, x1 = 0.0196) of 813.21 ± 0.85 kg/m3. It also gave a mass density (323.04 K, 7000 kPa, x1 = 0.0074) of 785.48 ± 0.88 kg/m3, a mass density (323.04 K, 7000 kPa, x1 = 0.0196) of 814.12 ± 0.85 kg/m3 and a mass density (323.04 K, 8000 kPa, x1 = 0.0074) of 786.42 ± 0.88 kg/m3. It also gave a mass density (323.04 K, 8000 kPa, x1 = 0.0196) of 815.02 ± 0.85 kg/m3, a mass density (323.04 K, 9000 kPa, x1 = 0.0074) of 787.36 ± 0.88 kg/m3 and a mass density (323.04 K, 9000 kPa, x1 = 0.0196) of 815.91 ± 0.85 kg/m3. The mass density (323.04 K, 10000 kPa, x1 = 0.0074) was 788.29 ± 0.89 kg/m3, the mass density (323.04 K, 10000 kPa, x1 = 0.0196) was 816.8 ± 0.85 kg/m3 and the mass density (323.04 K, 11000 kPa, x1 = 0.0074) was 789.22 ± 0.89 kg/m3. It also gave a mass density (323.04 K, 11000 kPa, x1 = 0.0196) of 817.69 ± 0.85 kg/m3, a mass density (323.04 K, 12000 kPa, x1 = 0.0074) of 790.13 ± 0.89 kg/m3 and a mass density (323.04 K, 12000 kPa, x1 = 0.0196) of 818.56 ± 0.85 kg/m3. It also gave a mass density (323.04 K, 13000 kPa, x1 = 0.0074) of 791.03 ± 0.89 kg/m3, a mass density (323.04 K, 13000 kPa, x1 = 0.0196) of 819.44 ± 0.85 kg/m3 and a mass density (323.04 K, 14000 kPa, x1 = 0.0074) of 791.94 ± 0.89 kg/m3. It also gave a mass density (323.04 K, 14000 kPa, x1 = 0.0196) of 820.29 ± 0.86 kg/m3, a mass density (323.04 K, 15000 kPa, x1 = 0.0074) of 792.82 ± 0.9 kg/m3 and a mass density (323.04 K, 15000 kPa, x1 = 0.0196) of 821.15 ± 0.86 kg/m3.
